Results: patent US5959109A, “Compounds and methods for increasing endogenous levels of corticotropin-releasing factor” (Neurocrine Biosciences, Inc., priority 1996, dated 1999)

test system: not given; experiment: not given; details: human, in vivo; cited from earlier work

Row | Compound | memory improvement in Alzheimer's patients | side effects
1 | Nc1c2c(nc3ccccc13)CCCC2 [Tacrine] | only marginal memory improvement | elevating liver enzymes
2 | CC(NC(C)(C)C)C(=O)c1cccc(Cl)c1 (stereo not drawn) [bupropion] |  | convulsions
3 | CNCCC(Oc1ccc(C(F)(F)F)cc1)c1ccccc1 (stereo not drawn) [fluoxetine] |  | suicidality

target: T1, human recombinant CRF-BP (Homo sapiens, UniProt P24387); experiment: LIRMA: displacement of 125I-h/rCRF from CRF-BP, Ki; format: binding; details: inhibitory binding affinity constant (Ki)
T1 construct: made in house
T1 sequence (P24387 25-322): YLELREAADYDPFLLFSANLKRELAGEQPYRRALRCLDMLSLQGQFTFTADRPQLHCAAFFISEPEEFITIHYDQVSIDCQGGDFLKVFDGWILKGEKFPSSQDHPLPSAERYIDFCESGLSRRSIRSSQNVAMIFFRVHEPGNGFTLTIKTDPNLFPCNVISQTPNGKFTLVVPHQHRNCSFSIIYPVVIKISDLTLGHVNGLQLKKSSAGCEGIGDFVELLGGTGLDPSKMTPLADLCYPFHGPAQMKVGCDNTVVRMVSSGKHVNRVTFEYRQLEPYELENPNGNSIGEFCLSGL
Description: In LIRMA CRF-BP isolated from brain tissue, serum, or cells expressing a recombinant form, is added to wells of a 96-well plate, to small polypropylene microfuge tubes, or to glass borosilicate tubes in a binding buffer (0.02% NP-40 in 50 mM phosphate-buffered saline). ^125 I-h/rCRF (New England Nuclear) and the candidate ligand inhibitor at 10 μM are added and the reaction is incubated for 1 hour at room temperature. An appropriately diluted anti-CRF-BP antibody, such as a rabbit anti-hCRF-BP (Potter et al., Proc. Natl. Acad. Sci. USA 89:4192-4196, 1992) is added to each tube, and after further incubation, bound complexes are precipitated by the further addition of a goat anti-rabbit antibody. The precipitate containing ^125 I-CRF is collected by centrifugation and the amount of radioactivity in the pellet is determined by a gamma counter. If the candidate ligand inhibitor displaces CRF from CRF-BP, the pellets will contain less radioactivity in comparison to controls in which no candidate peptide is added. Maximum inhibition (i.e., 100%) of the binding of ^125 I-h/rCRF to the CRF-BP is defined by the amount of radioactivity left in the pellets after incubation with 10 μM of the CRF-BP peptide ligand h/rCRF (6-33). Thus, the binding potency of the candidate ligand inhibitor will be measured relative to the potency of the standard h/rCRF (6-33).
Thus, a ligand having a Ki of less than that of hCRF will bind more strongly to hCRF-BP than will hCRF itself, and a ligand having a higher value will have a relatively lower binding affinity.
The assay is performed in 600 μl polypropylene microfuge tubes or a 96-well plate. First, 50 μl of a 250 ng/ml of purified recombinant CRF-BP is added to 150 μl of PBS binding buffer (50 mM sodium phosphate, 0.15M NaCl, and 0.02% NP-40). Next, ^125 I-h/r CRF at a final concentration of 200 pM and 50 μl of a 10-100 μM concentration of the ligand inhibitor are added and incubated for 1 hour at room temperature. To the reaction, 50 μl of anti-CRF-BP antibody, 5144, diluted 1:1000 with assay buffer is added to each tube and allowed to bind for a further 1 hour at room temperature. The total volume in all tubes is adjusted to 300 μl with assay buffer. Bound complexes are precipitated by the addition of 200 μl of preprecipitated goat anti-rabbit (GAR) second antibody at 1:20 in 1% normal rabbit serum, 4% PEG, 50 mM sodium phosphate, 0.1% sodium azide, followed by incubation for 1 hour at room temperature. The antibody-bound ^125 I-CRF precipitate is then collected by centrifugation (3000×g) at 4° C. for 20 minutes in a Beckman GS-15R centrifuge. Using a Beckman Biomer 1000 robotic workstation, the tubes are aspirated and washed once with 600 μl of PBS plus 0.02% NP-40. Tubes containing the pellets are then transferred to 12×74 mm counting tubes and counted in a gamma counter.
Inhibitory binding affinity constant (Ki) values are determined using the method of Munson et al., Anal. Biochem. 107:220, 1980.

Row | Compound | Ki
4 | CCn1c(O)c(C=NC(=S)Nc2c(Cl)cc(Cl)cc2Cl)c(=O)n(CC)c1=S [Compound 49] | < 100 nM
5 | O=c1c(C=NC(=S)Nc2ccc(Cl)cc2)c(O)n(Cc2ccccc2)c(=S)n1Cc1ccccc1 [Compound 53] | < 100 nM
6 | CCCn1c(O)c(C=NC(=S)Nc2ccc(Cl)cc2)c(=O)n(CCC)c1=S [Compound 54] | < 100 nM
7 | CCn1c(O)c(C=Nc2nc3ccccc3[nH]2)c(=O)n(CC)c1=S [Compound 58] | < 50 nM
8 | CCn1c(O)c(C=Nc2nc3c(C)cccc3s2)c(=O)n(CC)c1=S [Compound 72] | < 100 nM
9 | CCn1c(=O)c(C=Nc2nc3c(OC)cccc3s2)c(O)n(CCc2ccccc2)c1=S [Compound 73-1] | < 100 nM
10 | CCn1c(O)c(C=Nc2nc3c(OC)cccc3s2)c(=O)n(CC)c1=S [Compound 73] | < 50 nM
11 | CCn1c(O)c(C=Nc2nc3ccc(Cl)cc3s2)c(=O)n(CC)c1=S [Compound 74] | < 100 nM
12 | CCn1c(=O)c(C=Nc2nc3ccc(C)cc3s2)c(O)n(CCc2ccccc2)c1=S [Compound 75-1] | < 100 nM
13 | CCn1c(O)c(C=Nc2nc3ccc(C)cc3s2)c(=O)n(CC)c1=S [Compound 75] | < 50 nM
14 | CCn1c(=O)c(C=Nc2nc3ccc(OC)cc3s2)c(O)n(CCc2ccccc2)c1=S [Compound 76-1] | < 100 nM
15 | CCn1c(O)c(C=Nc2nc3ccc(OC)cc3s2)c(=O)n(CC)c1=S [Compound 76] | < 50 nM
16 | CCn1c(O)c(C=Nc2nc3ccc([N+](=O)[O-])cc3s2)c(=O)n(CC)c1=S [Compound 79] | < 100 nM
17 | CCn1c(O)c(C=Nc2nc3c(C(F)(F)F)cccc3s2)c(=O)n(CC)c1=S [Compound 80] | < 100 nM
18 | CCn1c(O)c(C=Nc2nc3cc([N+](=O)[O-])ccc3s2)c(=O)n(CC)c1=S [Compound 82] | < 50 nM
19 | CCn1c(=O)c(C=Nc2nc3cc(C)c(C)cc3[nH]2)c(O)n(CCc2ccccc2)c1=S [Compound 85-1] | < 50 nM
20 | CCn1c(O)c(C=Nc2nc3cc(C)c(C)cc3[nH]2)c(=O)n(CC)c1=S [Compound 85] | < 50 nM
21 | CCn1c(O)c(C=Nc2nc3cc(C)ccc3[nH]2)c(=O)n(CC)c1=S [Compound 86] | < 50 nM
22 | CCn1c(=O)c(C=Nc2nc3c(Cl)cccc3s2)c(O)n(CCc2ccccc2)c1=S [Compound 95-1] | < 100 nM
23 | O=c1c(C=Nc2nc3ccccc3[nH]2)c(O)n(CCc2cccs2)c(=S)n1CCc1cccs1 [Compound 97] | < 50 nM

Row | Compound | Ki
24 | CCCn1c(O)c(C=Nc2nnc(C)s2)c(=O)n(CCC)c1=S [Compound 103] | < 100 nM
25 | CCn1c(=O)c(C=Nc2nnc(C(F)(F)F)s2)c(O)n(CCc2ccccc2)c1=S [Compound 104-1] | < 100 nM
26 | CCn1c(O)c(C=Nc2nnc(C(F)(F)F)s2)c(=O)n(CC)c1=S [Compound 104] | < 100 nM
27 | O=c1c(C=Nc2nnc(C(F)(F)F)s2)c(O)n(Cc2ccccc2)c(=S)n1Cc1ccccc1 [Compound 105] | < 100 nM
28 | CCCn1c(O)c(C=Nc2nnc(C(F)(F)F)s2)c(=O)n(CCC)c1=S [Compound 106] | < 100 nM
29 | CCn1c(=O)c(C=Nc2nncs2)c(O)n(CCc2ccccc2)c1=S [Compound 110-1] | < 50 nM
30 | O=c1c(C=Nc2nncs2)c(O)n(Cc2ccccc2)c(=S)n1Cc1ccccc1 [Compound 111] | < 50 nM
31 | CCSc1nnc(N=Cc2c(O)n(Cc3ccccc3)c(=S)n(Cc3ccccc3)c2=O)s1 [Compound 115] | < 100 nM
32 | CCCn1c(O)c(C=Nc2nnc(SCC)s2)c(=O)n(CCC)c1=S [Compound 116] | < 100 nM
33 | CCn1c(=O)c(C=Nc2ncc(C)s2)c(O)n(CCc2ccccc2)c1=S [Compound 117-1] | < 100 nM
34 | Cc1cnc(N=Cc2c(O)n(Cc3ccccc3)c(=S)n(Cc3ccccc3)c2=O)s1 [Compound 118] | < 50 nM
35 | CCCCCCCCCCCCCCCCSc1nnc(N=Cc2c(O)n(Cc3ccccc3)c(=S)n(Cc3ccccc3)c2=O)s1 [Compound 121] | < 50 nM
36 | CCn1c(=O)c(C=Nc2nc(N(Cc3ccccc3)c3ccccc3)ns2)c(O)n(CCc2ccccc2)c1=S [Compound 131-1] | < 50 nM
37 | O=c1c(C=Nc2nc(N(Cc3ccccc3)c3ccccc3)ns2)c(O)n(Cc2ccccc2)c(=S)n1Cc1ccccc1 [Compound 132] | < 50 nM
38 | CCCn1c(O)c(C=Nc2nc(N(Cc3ccccc3)c3ccccc3)ns2)c(=O)n(CCC)c1=S [Compound 133] | < 50 nM
39 | O=c1c(C=Nc2ncc(Br)s2)c(O)n(Cc2ccccc2)c(=S)n1Cc1ccccc1 [Compound 140] | < 100 nM
40 | CCCn1c(O)c(C=Nc2nnc(CC)s2)c(=O)n(CCC)c1=S [Compound 150] | < 100 nM
41 | Cc1cnc(N=Cc2c(O)n(Cc3cccs3)c(=S)n(Cc3cccs3)c2=O)s1 [Compound 157] | < 50 nM
42 | CCCn1c(O)c(C=Nc2nc3c(s2)CCC3)c(=O)n(CCC)c1=S [Compound 172] | < 50 nM

same assay, conditions: read-out: inhibitory binding affinity constant (Ki)

Row | Compound | Ki
43 | O=c1oc2ccc(Cl)cc2c(O)c1C=NC(=S)Nc1ccc(Cl)cc1 [Compound 1, 3-(p-chlorophenyl)thioureidomethylene-4-oxo-6-chloro-coumarin] | < 50 nM
44 | O=c1oc2ccc(Cl)cc2c(O)c1C=NC(=S)Nc1ccc(Cl)c(Cl)c1 [Compound 2] | < 50 nM
45 | O=c1oc2ccc(Cl)cc2c(O)c1C=NC(=S)Nc1ccc(C(F)(F)F)cc1 [Compound 6] | < 50 nM
46 | O=c1oc2ccc(Cl)cc2c(O)c1C=NC(=S)Nc1c(Cl)cc(Cl)cc1Cl [Compound 7] | < 50 nM
47 | O=c1oc2ccc(Cl)cc2c(O)c1C=NC(=S)Nc1ccc(C2CCCCC2)cc1 [Compound 10] | < 50 nM
48 | O=c1oc2ccc(Cl)cc2c(O)c1C=NC(=S)Nc1ccc(-c2ccccc2)cc1 [Compound 19] | < 50 nM
49 | O=c1oc2ccc(Cl)cc2c(O)c1C=NC(=S)Nc1ccccc1-c1ccccc1 [Compound 20] | < 50 nM
50 | O=c1oc2ccc3ccccc3c2c(O)c1C=NC(=S)Nc1ccc(Cl)cc1 [Compound 29] | < 100 nM
51 | O=c1oc2c(Cl)cccc2c(O)c1C=NC(=S)Nc1ccc(Cl)cc1 [Compound 31] | < 50 nM
52 | O=c1oc2c(Cl)cc(Cl)cc2c(O)c1C=NC(=S)Nc1ccc(Cl)cc1 [Compound 32] | < 50 nM
53 | O=c1oc2ccc(Cl)cc2c(O)c1C=Nc1nc2c(Cl)cccc2s1 [Compound 36] | < 50 nM
54 | COc1cccc2sc(N=Cc3c(O)c4cc(Cl)ccc4oc3=O)nc12 [Compound 40] | < 100 nM
55 | O=c1oc2cc(Cl)ccc2c(O)c1C=Nc1nc2c(Cl)cccc2s1 [Compound 44] | < 50 nM
56 | O=c1oc2cc(Cl)ccc2c(O)c1C=Nc1nc2ccc(Cl)cc2s1 [Compound 45] | < 50 nM
57 | CCn1c(=O)c(C=Nc2nc3ccccc3[nH]2)c(O)n(CCc2ccccc2)c1=S [Compound 58-1] | < 100 nM

test system: human CRF-BP; experiment: not given; details: cited from earlier work

Row | Compound | affinity for CRF-BP
58 | oCRF: the standard oCRF, which is arbitrarily considered as 1.0 | low affinity
59 | sauvagine | bind CRF-BP with high affinity
